# Source: patent US20180208605A1, “Substituted Aza Compounds as IRAK-4 Inhibitors” (AURIGENE DISCOVERY TECHNOLOGIES LIMITED, priority 2015, published 2018)
# Where a name gives a salt, the structure may show the parent alone.
# Target: T1, recombinant IRAK-4 kinase (Homo sapiens, UniProt Q9NWZ3)
# T1 construct: purchased Millipore, USA
# T1 sequence (Q9NWZ3 1-460): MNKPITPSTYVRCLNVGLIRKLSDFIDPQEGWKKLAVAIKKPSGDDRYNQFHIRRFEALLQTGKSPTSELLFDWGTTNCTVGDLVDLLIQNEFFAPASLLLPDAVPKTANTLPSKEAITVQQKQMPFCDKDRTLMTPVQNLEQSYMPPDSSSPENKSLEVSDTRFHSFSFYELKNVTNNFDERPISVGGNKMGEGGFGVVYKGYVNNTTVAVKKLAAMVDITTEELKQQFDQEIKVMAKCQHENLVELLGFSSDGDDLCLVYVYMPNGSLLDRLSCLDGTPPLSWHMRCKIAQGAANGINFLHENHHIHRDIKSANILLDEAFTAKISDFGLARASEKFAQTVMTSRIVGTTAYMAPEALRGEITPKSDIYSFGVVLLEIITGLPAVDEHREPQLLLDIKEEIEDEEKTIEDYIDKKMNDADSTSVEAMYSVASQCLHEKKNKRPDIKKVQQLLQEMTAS
# Assay: IRAK-4 Biochemical Assay (TR-FRET, percent inhibition)
# Conditions: TR-FRET, 20 μM ATP, 100 nM Biotin Histone H3; for inhibition at 0.1 µM: read-out: % inhibition of IRAK-4 @0.1 μM, compound at 0.1 μM; for inhibition at 1 µM: read-out: % inhibition of IRAK-4 @ 1 μM, compound at 1 μM
# Procedure, shortened: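 IRAK-4 pre-incubated with compound 30 min at room temperature in Tris-HCl pH 7.5 buffer with MgCl2, MnCl2 and DTT, then reacted 30 min with 100 nM biotin-histone H3 and 20 μM ATP. EDTA stop with Eu-anti-phospho-H3 (Ser10) and APC-streptavidin. Percent inhibition derived from the 665/615 nm emission ratio at 340 nm excitation.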
Compound,inhibition at 0.1 µM [%],inhibition at 1 µM [%],% inhibition of IRAK-4 @0.1 μM (compound at 0.1 μM) [%],% inhibition of IRAK-4 @ 1 μM (compound at 1 μM) [%]
"O=C(Nc1cc2sc(N3CCOCC3)nc2nc1N1CC[C@@H](O)C1)c1cnn2cccnc12 [Example 103, (R)-N-(5-(3-hydroxypyrrolidin-1-yl)-2-morpholinothiazolo[4,5-b]pyridin-6-yl)pyrazolo[1,5-a]pyrimidine-3-carboxamide hydrochloride]",92,97,,
"O=C(Nc1cc2sc(N3CCOCC3)nc2nc1N1CCCCC1)c1cnn2cccnc12 [Example 104, N-(2-morpholino-5-(piperidin-1-yl)thiazolo[4,5-b]pyridin-6-yl)pyrazolo[1,5-a]pyrimidine-3-carboxamide hydrochloride]",95,97,,
"Cl.O=C(Nc1cc2sc(N3CCOCC3)nc2nc1C1CC1)c1cnn2cccnc12 [Example 106, N-(5-cyclopropyl-2-morpholinothiazolo[4,5-b]pyridin-6-yl)pyrazolo[1,5-a]pyrimidine-3-carboxamide hydrochloride]",,,93,97
"O=C(Nc1cc2oc(N3CCOCC3)nc2nc1C1CC1)c1cnn2cccnc12 [Example 107, N-(5-cyclopropyl-2-morpholinooxazolo[4,5-b]pyridin-6-yl)pyrazolo[1,5-a]pyrimidine-3-carboxamide hydrochloride]",57,92,,

# The next lines start with the values.
inhibition at 0.1 µM [%],inhibition at 1 µM [%],% inhibition of IRAK-4 @0.1 μM (compound at 0.1 μM) [%],% inhibition of IRAK-4 @ 1 μM (compound at 1 μM) [%],Compound
96,98,,,"O=C(Nc1cc2sc(N3CCOCC3)nc2nc1C1CC1)c1cnn2ccc(N3CCC(O)CC3)nc12 [Example 101, N-(5-cyclopropyl-2-morpholinothiazolo[4,5-b]pyridin-6-yl)-5-(4-hydroxypiperidin-1-yl)pyrazolo[1,5-a]pyrimidine-3-carboxamide]"
21,56,,,"NC1CCCN(c2ccn3ncc(C(=O)Nc4cc5sc(N6CCOCC6)nc5nc4N4CC[C@@H](O)C4)c3n2)C1 (stereo partly drawn) [Example 102, 5-(3-aminopiperidin-1-yl)-N-(5-((R)-3-hydroxypyrrolidin-1-yl)-2-morpholinothiazolo[4,5-b]pyridin-6-yl)pyrazolo[1,5-a]pyrimidine-3-carboxamide hydrochloride]"
96,97,,,"O=C(Nc1cc2sc(N3CCOCC3)nc2nc1C1CC1)c1cnn2cccnc12 [Example 105, N-(5-cyclopropyl-2-morpholinothiazolo[4,5-b]pyridin-6-yl)pyrazolo[1,5-a]pyrimidine-3-carboxamide]"
